# Assay results: patent publication US20240300932A1, “N-PHENYLIMINE DERIVATIVE AND PREPARATION METHOD AND USE THEREOF” (Guizhou University, priority 2023, published 2024)
# Assays:
# [1] = tested on: Amaranthus retroflexus; experiment: Post-emergence herbicidal activity test (stem and leaf spray, pot culture); assay type: in vivo; conditions: 3 weeks after spraying
# Method in brief: (§1)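 Read-out: fresh weight control rate 3 weeks post-spray, graded 5 (≥85%) down to 0 (<5%). Foliar spray at 2–3-leaf stage; rates 10, 5, 2.5 g/mu; acetone + Tween 80 formulation with methyl oleate synergist; greenhouse 20–30 °C, natural light.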
# [2] = tested on: Portulaca oleracea; experiment: as above; assay type: in vivo; conditions: 3 weeks after spraying
# Method in brief: as §1
# [3] = tested on: Abutilon theophrasti; experiment: as above; assay type: in vivo; conditions: 3 weeks after spraying
# Method in brief: as §1
# [4] = tested on: Setaria viridis; experiment: as above; assay type: in vivo; conditions: 3 weeks after spraying
# Method in brief: as §1
# [5] = tested on: Echinochloa crusgalli; experiment: as above; assay type: in vivo; conditions: 3 weeks after spraying
# Method in brief: as §1
# [6] = tested on: Trifoliumre pensL.; experiment: as above; assay type: in vivo; conditions: 3 weeks after spraying
# Method in brief: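 Pot-grown weeds in loam (pH 7), greenhouse at 20–30 °C, sprayed once post-emergence at the 2–3-leaf stage. Compound in acetone with Tween 80 plus methyl oleate oil (1.5 L/ha), applied at 10, 5 and 2.5 g/mu by spray tower. Effect scored 3 weeks after spraying, averaged over three repeats.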
melting point,SMILES,"Post-emergence herbicidal activity, A. retroflexus (grade) ([1]; dosage 2.5 g/mu)","Post-emergence herbicidal activity, A. retroflexus (grade) ([1]; dosage 5 g/mu)","Post-emergence herbicidal activity, A. retroflexus (grade) ([1]; dosage 10 g/mu)","Post-emergence herbicidal activity, P. oleracea (grade) ([2]; dosage 2.5 g/mu)","Post-emergence herbicidal activity, P. oleracea (grade) ([2]; dosage 5 g/mu)","Post-emergence herbicidal activity, P. oleracea (grade) ([2]; dosage 10 g/mu)","Post-emergence herbicidal activity, A. theophrasti (grade) ([3]; dosage 2.5 g/mu)","Post-emergence herbicidal activity, A. theophrasti (grade) ([3]; dosage 5 g/mu)","Post-emergence herbicidal activity, A. theophrasti (grade) ([3]; dosage 10 g/mu)","Post-emergence herbicidal activity, S. viridis (grade) ([4]; dosage 2.5 g/mu)","Post-emergence herbicidal activity, S. viridis (grade) ([4]; dosage 5 g/mu)","Post-emergence herbicidal activity, S. viridis (grade) ([4]; dosage 10 g/mu)","Post-emergence herbicidal activity, E. crusgalli (grade) ([5]; dosage 2.5 g/mu)","Post-emergence herbicidal activity, E. crusgalli (grade) ([5]; dosage 5 g/mu)","Post-emergence herbicidal activity, E. crusgalli (grade) ([5]; dosage 10 g/mu)","Post-emergence herbicidal activity, Trifoliumre pensL. (grade) ([6]; dosage 2.5 g/mu)","Post-emergence herbicidal activity, Trifoliumre pensL. (grade) ([6]; dosage 5 g/mu)","Post-emergence herbicidal activity, Trifoliumre pensL. (grade) ([6]; dosage 10 g/mu)"
171 to 178 °C,"N#Cc1ccc(C(=O)COc2cc(N3C(=O)C4=C(CCCC4)C3=O)c(F)cc2Cl)cc1 [Compound C3, 2-(4-chloro-2-fluoro-5-(2-oxo-2-(4-cyanophenyl)ethoxy)phenyl)-4,5,6,7-tetrahydro-1H-isoindole-1,3(2H)-dione]",5 (Grade 5: the growth control rate is greater than or equal to 85%),5 (Grade 5: the growth control rate is greater than or equal to 85%),5 (Grade 5: the growth control rate is greater than or equal to 85%),5 (Grade 5: the growth control rate is greater than or equal to 85%),5 (Grade 5: the growth control rate is greater than or equal to 85%),5 (Grade 5: the growth control rate is greater than or equal to 85%),5 (Grade 5: the growth control rate is greater than or equal to 85%),5 (Grade 5: the growth control rate is greater than or equal to 85%),5 (Grade 5: the growth control rate is greater than or equal to 85%),2 (Grade 2: the growth control rate is greater than or equal to 20% and less than 40%),3 (Grade 3: the growth control rate is greater than or equal to 40% and less than 60%),4 (Grade 4: the growth control rate is greater than or equal to 60% and less than 85%),1 (Grade 1: the growth control rate is greater than or equal to 5% and less than 20%),2 (Grade 2: the growth control rate is greater than or equal to 20% and less than 40%),3 (Grade 3: the growth control rate is greater than or equal to 40% and less than 60%),5 (Grade 5: the growth control rate is greater than or equal to 85%),5 (Grade 5: the growth control rate is greater than or equal to 85%),5 (Grade 5: the growth control rate is greater than or equal to 85%)
133 to 138 °C,"C/C=C/C(=O)Nc1cc(N2C(=O)C3=C(CCCC3)C2=O)c(F)cc1Cl [Compound D5, (E)-N-(2-chloro-5-(1,3-dioxo-1,3,4,5,6,7-hexahydro-2H-isoindole-2-yl)-4-fluorophenyl)but-2-enamide]",–,–,5 (Grade 5: the growth control rate is greater than or equal to 85%),–,–,5 (Grade 5: the growth control rate is greater than or equal to 85%),–,–,5 (Grade 5: the growth control rate is greater than or equal to 85%),–,–,4 (Grade 4: the growth control rate is greater than or equal to 60% and less than 85%),–,–,3 (Grade 3: the growth control rate is greater than or equal to 40% and less than 60%),–,–,5 (Grade 5: the growth control rate is greater than or equal to 85%)
208 to 210 °C,"O=C(Nc1cc(N2C(=O)C3=C(CCCC3)C2=O)c(F)cc1Cl)C1CC1 [Compound D8, N-(2-chloro-5-(1,3-dioxo-1,3,4,5,6,7-hexahydro-2H-isoindole-2-yl)-4-fluorophenyl)cyclopropanecarboxamide]",–,–,5 (Grade 5: the growth control rate is greater than or equal to 85%),–,–,5 (Grade 5: the growth control rate is greater than or equal to 85%),–,–,5 (Grade 5: the growth control rate is greater than or equal to 85%),–,–,3 (Grade 3: the growth control rate is greater than or equal to 40% and less than 60%),–,–,3 (Grade 3: the growth control rate is greater than or equal to 40% and less than 60%),–,–,5 (Grade 5: the growth control rate is greater than or equal to 85%)
